Test results taken from patent US12433865B2, “Compositions comprising PGI2-receptor agonists and processes for the preparation thereof” (Arena Pharmaceuticals, Inc., priority 2018, dated 2025).

Test: Release (dissolution) profile of capsules, USP Apparatus 2 (paddle)
Type: physicochemical
Conditions: for Release rate (percentage of Compound 1 released over time): 0.04 mg capsule, Poloxamer 188:food grade GMS 50:50, T = 0 (pre-curing)
Text: USP Apparatus 2 (Paddle Apparatus) is described, for example, in the United States Pharmacopeial Convention, Feb. 1, 2012, Chapter <711> (“Dissolution”), incorporated by reference herein in its entirety. See http://www.usp.org/sites/default/files/usp_pdf/EN/USPNF/revisions/m99470-gc_711.pdf. The assembly from Apparatus 1 is used, except that a paddle formed from a blade and a shaft is used as the stirring element. The shaft is positioned so that its axis is not more than 2 mm from the vertical axis of the vessel at any point and rotates smoothly without significant wobble that could affect the results. The vertical center line of the blade passes through the axis of the shaft so that the bottom of the blade is flush with the bottom of the shaft. A distance of 25±2 mm between the bottom of the blade and the inside bottom of the vessel is maintained during the test. The metallic or suitably inert, rigid blade and shaft comprise a single entity. A suitable two-part detachable design may be used provided the assembly remains firmly engaged during the test. The paddle blade and shaft may be coated with a suitable coating so as to make them inert. The dosage unit is allowed to sink to the bottom of the vessel before rotation of the blade is started. A small, loose piece of nonreactive material, such as not more than a few turns of wire helix, may be attached to dosage units that would otherwise float. Other validated sinker devices may be used.
Unless otherwise specified, the release profiles for capsules were measured using USP Apparatus 2 (paddle).
All release profiles disclosed in Tables 3c-3p were measured with USP Apparatus 2 (paddle) at 50 rpm in 500 mL of aqueous sodium phosphate at a concentration of 0.05 M (pH=6.8). The values in a given table relate to capsules obtained from the same batch. Values shown represent mean values over a number of dissolution tests (“n” in each table) in each case.

SMILES: O=C(O)COC[C@H]1CC[C@H](COC(=O)N(c2ccccc2)c2ccc(Cl)cc2)CC1 [Compound 1, 2-(((1r,4r)-4-(((4-chlorophenyl)(phenyl)carbamoyloxy)methyl)cyclohexyl)methoxy)acetic acid]
- Release rate (percentage of Compound 1 released over time) (480 min): 72.7%
- Release rate (percentage of Compound 1 released over time) (600 min): 79.8%
- Release rate (percentage of Compound 1 released over time) (720 min): 83.1%
- Release rate (percentage of Compound 1 released over time) (735 min): 84.6%
- change of release rate after storage (0.04 mg of Compound 1 in Gelucire 50/13, storage at 40° C. and 75% RH for two weeks (FIG. 5)): rapid increase
- release rate relative to immediate-release composition (0.5 mg Compound 1, Poloxamer 188:food grade GMS 70:30, 50:50 and 30:70 (FIGS. 8-10)): slower rate
- release rate after storage (0.5 mg Compound 1, Poloxamer 188:food grade GMS 70:30, 50:50 and 30:70, storage at 40° C. and 75% RH for about one month (FIGS. 8-10)): substantially the same
- mean value (n = 6) of % of Compound 1 released (Table 3c: size 4 capsule, 0.03 mg Compound 1, Poloxamer 188:food grade GMS 70:30, 20 min): 14.8%
- mean value (n = 6) of % of Compound 1 released (Table 3c: size 4 capsule, 0.03 mg Compound 1, Poloxamer 188:food grade GMS 70:30, 30 min): 36.1%
- mean value (n = 6) of % of Compound 1 released (Table 3c: size 4 capsule, 0.03 mg Compound 1, Poloxamer 188:food grade GMS 70:30, 45 min): 65.4%
- mean value (n = 6) of % of Compound 1 released (Table 3c: size 4 capsule, 0.03 mg Compound 1, Poloxamer 188:food grade GMS 70:30, 60 min): 83.8%
- mean value (n = 6) of % of Compound 1 released (Table 3c: size 4 capsule, 0.03 mg Compound 1, Poloxamer 188:food grade GMS 70:30, 90 min): 95.5%
- mean value (n = 6) of % of Compound 1 released (Table 3c: size 4 capsule, 0.03 mg Compound 1, Poloxamer 188:food grade GMS 70:30, 120 min): 98.4%
- mean value (n = 4) of % of Compound 1 released (Table 3e: size 4 capsule, 0.5 mg Compound 1, Poloxamer 188:food grade GMS 70:30, 30 min): 17.7%
- mean value (n = 4) of % of Compound 1 released (Table 3e: size 4 capsule, 0.5 mg Compound 1, Poloxamer 188:food grade GMS 70:30, 60 min): 56.9%
- mean value (n = 4) of % of Compound 1 released (Table 3e: size 4 capsule, 0.5 mg Compound 1, Poloxamer 188:food grade GMS 70:30, 120 min): 95.1%
- mean value (n = 4) of % of Compound 1 released (Table 3f: size 4 capsule, 0.5 mg Compound 1, Poloxamer 188:food grade GMS 70:30, 30 min): 19.3%
- mean value (n = 4) of % of Compound 1 released (Table 3f: size 4 capsule, 0.5 mg Compound 1, Poloxamer 188:food grade GMS 70:30, 60 min): 61.9%
- mean value (n = 4) of % of Compound 1 released (Table 3f: size 4 capsule, 0.5 mg Compound 1, Poloxamer 188:food grade GMS 70:30, 120 min): 98.1%
- mean value (n = 4) of % of Compound 1 released (Table 3g-1: Storage Time = 0, size 4 capsule, 0.5 mg Compound 1, Poloxamer 188:food grade GMS 70:30, 30 min): 33.0%
- mean value (n = 4) of % of Compound 1 released (Table 3g-1: Storage Time = 0, size 4 capsule, 0.5 mg Compound 1, Poloxamer 188:food grade GMS 70:30, 45 min): 64.2%
- mean value (n = 4) of % of Compound 1 released (Table 3g-1: Storage Time = 0, size 4 capsule, 0.5 mg Compound 1, Poloxamer 188:food grade GMS 70:30, 60 min): 86.0%
- mean value (n = 4) of % of Compound 1 released (Table 3g-2 (Storage Time = 2 weeks), first line, size 4 capsule, 0.5 mg Compound 1, Poloxamer 188:food grade GMS 70:30, 30 min): 33.0%
- mean value (n = 4) of % of Compound 1 released (Table 3g-2 (Storage Time = 2 weeks), first line, size 4 capsule, 0.5 mg Compound 1, Poloxamer 188:food grade GMS 70:30, 45 min): 64.2%
- mean value (n = 4) of % of Compound 1 released (Table 3g-2 (Storage Time = 2 weeks), first line, size 4 capsule, 0.5 mg Compound 1, Poloxamer 188:food grade GMS 70:30, 60 min): 86.0%
- mean value (n = 4) of % of Compound 1 released (Table 3g-2 (Storage Time = 2 weeks), second line, size 4 capsule, 0.5 mg Compound 1, Poloxamer 188:food grade GMS 70:30, 30 min): 34.8%
- mean value (n = 4) of % of Compound 1 released (Table 3g-2 (Storage Time = 2 weeks), second line, size 4 capsule, 0.5 mg Compound 1, Poloxamer 188:food grade GMS 70:30, 45 min): 67.9%
- mean value (n = 4) of % of Compound 1 released (Table 3g-2 (Storage Time = 2 weeks), second line, size 4 capsule, 0.5 mg Compound 1, Poloxamer 188:food grade GMS 70:30, 60 min): 89.4%
- mean value (n = 4) of % of Compound 1 released (Table 3i: size 4 capsule, 0.5 mg Compound 1, Poloxamer 188:food grade GMS 50:50, 30 min): 7.5%
- mean value (n = 4) of % of Compound 1 released (Table 3i: size 4 capsule, 0.5 mg Compound 1, Poloxamer 188:food grade GMS 50:50, 60 min): 21.1%
- mean value (n = 4) of % of Compound 1 released (Table 3i: size 4 capsule, 0.5 mg Compound 1, Poloxamer 188:food grade GMS 50:50, 120 min): 41.1%
- mean value (n = 4) of % of Compound 1 released (Table 3i: size 4 capsule, 0.5 mg Compound 1, Poloxamer 188:food grade GMS 50:50, 180 min): 58.9%
- mean value (n = 4) of % of Compound 1 released (Table 3i: size 4 capsule, 0.5 mg Compound 1, Poloxamer 188:food grade GMS 50:50, 240 min): 75.3%
- mean value (n = 4) of % of Compound 1 released (Table 3i: size 4 capsule, 0.5 mg Compound 1, Poloxamer 188:food grade GMS 50:50, 360 min): 94.3%
- mean value (n = 4) of % of Compound 1 released (Table 3i: size 4 capsule, 0.5 mg Compound 1, Poloxamer 188:food grade GMS 50:50, 480 min): 100.0%
- mean value (n = 4) of % of Compound 1 released (Table 3j: size 4 capsule, 0.5 mg Compound 1, Poloxamer 188:food grade GMS 50:50, 30 min): 7.8%
- mean value (n = 4) of % of Compound 1 released (Table 3j: size 4 capsule, 0.5 mg Compound 1, Poloxamer 188:food grade GMS 50:50, 60 min): 19.5%
- mean value (n = 4) of % of Compound 1 released (Table 3j: size 4 capsule, 0.5 mg Compound 1, Poloxamer 188:food grade GMS 50:50, 120 min): 38.6%
- mean value (n = 4) of % of Compound 1 released (Table 3j: size 4 capsule, 0.5 mg Compound 1, Poloxamer 188:food grade GMS 50:50, 180 min): 56.8%
- mean value (n = 4) of % of Compound 1 released (Table 3j: size 4 capsule, 0.5 mg Compound 1, Poloxamer 188:food grade GMS 50:50, 240 min): 72.9%
- mean value (n = 4) of % of Compound 1 released (Table 3j: size 4 capsule, 0.5 mg Compound 1, Poloxamer 188:food grade GMS 50:50, 360 min): 90.7%
- mean value (n = 4) of % of Compound 1 released (Table 3j: size 4 capsule, 0.5 mg Compound 1, Poloxamer 188:food grade GMS 50:50, 480 min): 97.4%
- mean value (n = 6) of % of Compound 1 released (Table 3k: size 4 capsule, 0.03 mg Compound 1, Poloxamer 188:food grade GMS 50:50, 30 min): 8.5%
- mean value (n = 6) of % of Compound 1 released (Table 3k: size 4 capsule, 0.03 mg Compound 1, Poloxamer 188:food grade GMS 50:50, 60 min): 18.0%
- mean value (n = 6) of % of Compound 1 released (Table 3k: size 4 capsule, 0.03 mg Compound 1, Poloxamer 188:food grade GMS 50:50, 120 min): 39.3%
- mean value (n = 6) of % of Compound 1 released (Table 3k: size 4 capsule, 0.03 mg Compound 1, Poloxamer 188:food grade GMS 50:50, 180 min): 58.6%
- mean value (n = 6) of % of Compound 1 released (Table 3k: size 4 capsule, 0.03 mg Compound 1, Poloxamer 188:food grade GMS 50:50, 240 min): 75.2%
